Where two headings read alike, the source gives them in different places.
Assays:
AsPMT = AsPMT (Ascaris suum, UniProt F1L4B9); type: biochemical; details: for Selectivity index (SI) AsPMT: IC50^Cytotoxicity/IC50^Enzyme; for IC50: read-out: Mean IC50 ± SEM, Enzyme AsPMT;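 as to Selectivity index (SI) AsPMT: cytotoxicity IC50 measured in HCT-8 cells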
Description: The chemical compounds were obtained from the National Cancer Institute/Developmental Therapeutics Program Open Chemical Repository. […] Compounds were individually reconstituted in molecular biology grade dimethyl sulfoxide (DMSO) from Sigma-Aldrich to a stock concentration of 10 mM and stored at −20°C until use. Initial screening was conducted using recombinant HcPMT1 protein as enzyme in the methyltransferase assay, with test compounds at a final concentration of 40 μM. […] To the positive reaction mixture, instead of test compound, an equivalent volume of DMSO was added. In the negative-control reaction mixture, instead of HcPMT1 and test compound, equivalent volumes of 1× transferase buffer and DMSO, respectively, were added. Detection buffer (100 μL) containing fluorescence substrate was added into each reaction mixture. The reactions were prepared in triplicate wells in 96-well plates. The plates were covered in aluminum foil and incubated at room temperature with agitation for 30 min, followed by reading the fluorescence at 380EX/520EM. The mean percent inhibition (MPI) of the test compound on enzymatic activity was calculated using the following formula: MPI = ΔRFUpositive control − ΔRFUcompounds/ΔRFUpositive control × 100, where the positive control is a reaction without compound but with recombinant PMT protein and a volume of DMSO equivalent to that of compound used in test reactions; the negative control is the reaction without protein and compounds, but with volumes of dialysis buffer and DMSO equivalent to protein and compound added in the test reaction mixtures, respectively; ΔRFUpositive control represents the absolute relative fluorescence units (RFU) for the positive control, which equals RFUpositive control – RFUnegative control; and ΔRFUcompounds represents the absolute RFU value for the sample with the compounds, which equals RFUcompounds – RFUnegative control.
The enzymatic assay was set up as described above, with the respective PMT protein as enzyme.

[1] = system: HcPMT1+2-complemented pem1Δ/pem2Δ S. cerevisiae; assay: Growth inhibition of complemented yeast; type: cell-based, Saccharomyces cerevisiae; details: read-out: Mean growth inhibition EC50 ± SEM on complemented yeast, HcPMT1+2
Description: To determine the effect of PMT inhibitors on the growth of PMT- and LacZ-complemented pem1Δpem2Δ S. cerevisiae, the yeast cells were first starved of choline as described above, and the cells were diluted to an OD600 of ~0.6. The PMT-complemented yeast cells were cultured in SG medium (3.4g/L yeast nitrogen base without amino acids, 2% galactose, 30 mg/L histidine, 100 mg/L leucine, 100 mg/L adenine, and 50 mg/L tryptophan) supplemented with 1 mM ethanolamine hydrochloride, while the LacZ-complemented yeast cells were cultured in SG medium supplemented with 1 mM choline chloride. Compounds that depicted cross-inhibitory activity against PMT proteins in vitro were added at various concentrations to the cultures. As a negative control, DMSO (at a final concentration not exceeding 2% [vol/vol]) was added to yeast cultures designated control cultures. The cultures were incubated at 30°C with shaking at 275 rpm for 4 days. On a daily basis during the course of culture, 200-μL portions of culture aliquots were taken, and their OD600s were measured using a microplate reader. In preliminary work, we had observed that the growth of PMT- and LacZ-complemented pem1Δpem2Δ S. cerevisiae plateaued at 3 to 4 days of culture. Therefore, to determine the inhibitory effect of nematode PMT inhibitors on the growth of PMT- and LacZ-complemented pem1Δpem2Δ S. cerevisiae, measurements taken on day 3 were used. The results were presented as percentage of growth rate using the following formula: PGR = growth rate (plus inhibitor)/growth rate (minus inhibitor) × 100 where the percent growth rate (PGR) is the growth rate of inhibitor-treated PMT- or LacZ- complemented Pem1Δpem2Δ S. cerevisiae, considering the growth rate of untreated PMT- or LacZ- complemented Pem1Δpem2Δ S. cerevisiae is 100%; the growth rate = ΔA600^Day 3/ΔA600^Day 0; ΔA600^Day 0 is the absolute value of A600 of PMT- or LacZ- complemented pem1Δ/pem2Δ S. cerevisiae at day 0, which equals the A600 of the culture minus the A600 of the growth medium only; ΔA600^Day 3 is the absolute value of the A600 of PMT- or LacZ complemented pem1Δ/pem2Δ S. cerevisiae at day 3, which equals the A600 of the culture at day 3 minus the A600 of growth medium only; the growth rate (plus inhibitor) is the growth rate of PMT- or -LacZ complemented pem1Δpem2Δ S. cerevisiae in the presence of test compound; and the growth rate (minus inhibitor) is the growth rate of the PMT- or LacZ complemented pem1Δ/pem2Δ S. cerevisiae in the absence of test compound, but with a volume of DMSO equal to that of compound added in the treated culture. The dose-response curves were generated with GraphPad Prism software and IC50 concentrations of the compounds in PMT- and LacZ-complemented yeast cells derived.

[2] = medium with ethanolamine, no choline, day 3

Chain of AsPMT (F1L4B9 entry or part of it): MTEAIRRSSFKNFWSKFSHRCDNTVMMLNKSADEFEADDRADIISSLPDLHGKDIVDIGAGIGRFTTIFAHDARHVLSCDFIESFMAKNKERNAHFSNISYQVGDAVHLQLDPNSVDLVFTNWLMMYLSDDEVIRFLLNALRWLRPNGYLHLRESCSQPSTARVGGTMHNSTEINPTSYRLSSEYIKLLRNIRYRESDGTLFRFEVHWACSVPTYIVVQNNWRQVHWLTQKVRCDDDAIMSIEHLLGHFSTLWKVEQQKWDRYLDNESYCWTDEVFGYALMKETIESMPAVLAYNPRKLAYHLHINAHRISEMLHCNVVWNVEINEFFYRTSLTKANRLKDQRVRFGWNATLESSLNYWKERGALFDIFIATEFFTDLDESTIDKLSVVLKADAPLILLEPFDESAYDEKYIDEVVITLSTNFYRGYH

## O=c1c(O)cccc2cc(O)c(O)c(O)c12 [NSC35676, purpurogallin]
AsPMT
  Selectivity index (SI) AsPMT: 45.59
  IC50: 12.4 ± 1.1 µM
[1]; Saccharomyces cerevisiae, 72 h
  EC50: 5.45 ± 0.95 µM

## CO[C@@]12[C@H](COC(N)=O)C3=C(C(=O)C(C)=C(N)C3=O)N1C[C@H]1[C@@H]2N1C (stereo partly drawn) [NSC56410]
AsPMT
  Selectivity index (SI) AsPMT: 3.24
  IC50: 58.1 ± 12.9 µM
[1]; Saccharomyces cerevisiae, 72 h
  EC50: 1.48 ± 0.21 µM

## COc1ccc(-c2c(C)c(C(=O)O)nc(-c3ccc4c(O)c(OC)c5c(c4n3)=NC(C)(C)N=5)c2N)c(O)c1OC [NSC62709]
AsPMT
  Selectivity index (SI) AsPMT: 6.75
  IC50: 44.3 ± 1.35 µM
[1]; [2]
  EC50: 3.03 ± 0.26 µM

## COc1cc(C)c2c(c1C=O)Oc1c(c(C)c(O)c3c1C(O)OC3=O)OC2=O (stereo not drawn) [NSC87511]
AsPMT
  Selectivity index (SI) AsPMT: 0.97
  IC50: 177 ± 15.6 µM
[1]; [2]
  EC50: 2.08 ± 0.29 µM

## CO[C@H]1/C=C/O[C@@]2(C)Oc3c(C)c(O)c4c(O)c(cc(O)c4c3C2=O)NC(=O)/C(C)=C\C=C\[C@H](C)[C@H](O)[C@@H](C)[C@@H](O)[C@@H](C)[C@H](OC(C)=O)[C@@H]1C [NSC133100]
AsPMT
  Selectivity index (SI) AsPMT: 3.00
  IC50: 34 ± 2.85 µM
[1]; [2]
  EC50: 18.7 ± 2.07 µM

## CO[C@@H]1/C=C\O[C@]2(C)Oc3c(C)c(O)c4c(O)c(c(CN(C)C)c(O)c4c3C2=O)NC(=O)/C(C)=C\C=C[C@@H](C)[C@@H](O)[C@H](C)[C@@H](O)[C@H](C)[C@H](OC(C)=O)[C@@H]1C [NSC145612]
AsPMT
  Selectivity index (SI) AsPMT: 6.67
  IC50: 45.3 ± 1.71 µM
[1]; [2]
  EC50: 8.28 ± 0.99 µM

## CO[C@@H]1/C=C/O[C@@]2(C)Oc3c(C)c(O)c4c(c3C2=O)C(=N[C@@H]2CC[C@@H](O)O[C@H]2C)C=C(NC(=O)/C(C)=C\C(=O)[C@@H]2C[C@@H]2[C@H](O)[C@@H](C)[C@@H](O)[C@@H](C)[C@H](OC(C)=O)[C@@H]1C)C4=O [NSC177383]
AsPMT
  Selectivity index (SI) AsPMT: 3.47
  IC50: 24.6 ± 1.79 µM
[1]; [2]
  EC50: 6.11 ± 1.84 µM
